The values below are quoted from earlier work in the CATMoS acute toxicity set (Mansouri et al. 2021).

The structures appear in SMILES notation. “And” between values parts separate entries of the source, which are not always exact repeats. Identical values can stand only once.

The data set in a line: rat acute oral toxicity. The settings on record: in vivo.
As a reminder, the LD50 is the dose at which mortality reaches 50%. Take `CCCCCCCCCCCCN(CCC(=O)O)CCC(=O)O`: the LD50 was 31300 mg/kg.
As for `CCC(=O)C1(N2CCCCC2)CCN(CCCC(=O)c2ccc(F)cc2)CC1`, the LD50 is 780 mg/kg.
Take `Cc1ccc(N)nc1`: the LD50 was 200 mg/kg.
Regarding `O=C(O)C(Cl)Cl`, the LD50 is 5280 mg/kg and 2820 mg/kg.
As to `Cc1cc(C)c(N)cc1C`, the LD50 is 1250 mg/kg and 1580 mg/kg.
In the case of `C=CCSC(C)C1(CC=C)C(=O)N=C(O)NC1=O` (stereo not given), the LD50 was 346 mg/kg.
On to `Nc1ccc(C=Cc2ccc([N+](=O)[O-])cc2S(=O)(=O)O)c(S(=O)(=O)O)c1`, for which the LD50 was 14200 mg/kg.
As to `CNC(=O)ON=C1SC(=NC(C)C)SC1(C)C`, the median lethal dose (LD50) is 8.9 mg/kg.
Regarding `CC/C=C\CCO`, the LD50 was 4700 mg/kg.
In the case of `CCCCNC`, the 50% lethal dose (LD50) is 420 mg/kg.
Take `CCOC(=O)c1c[n+](C)c2n(c1=O)C(C)CCC2` (stereo not given): the LD50 is 1500 mg/kg.
For `CCC(O)C(c1ccccc1)N1CCN(CCOc2ccccc2C)CC1` (stereo not given), the LD50 was 700 mg/kg.
Consider `CNC(=O)Oc1cc(C)c(NC(=O)O)c(C)c1`, for which the LD50 was 71 mg/kg.
As to `COc1ccc(Cc2nccc3cc(OC)c(OC)cc23)cc1OC`, the median lethal dose (LD50) was 68.8 mg/kg.
With `CCc1cccc(CC)c1N(CNC(C)=O)C(=O)CCl`, the LD50 is 3100 mg/kg.
In the case of `CC(C)CCOC(=S)S`, the LD50 is 765 mg/kg.
Regarding `CN(CCN(C)N=O)N=O`, the LD50 is 125 mg/kg.
In the case of `CNC(=O)OC1C2(C)CCC(C2)C1(C)C` (stereo not given), the LD50 was 500 mg/kg.
On to `Nc1cc([N+](=O)[O-])ccc1Cl`, for which the LD50 was 2020 mg/kg.
Regarding `N#CC(Cl)(Cl)CCl`, the LD50 was 200 mg/kg and 250 mg/kg.
With `C[N+]1(C)CCCC1COC(=O)C(O)(c1ccccc1)C1CCCCC1` (stereo not given), the LD50 was 780 mg/kg.
In the case of `OCC1CCCO1` (stereo not given), the LD50 was 1600 mg/kg.
As for `CNS(=O)(=O)CCNC(=O)N(CCCl)N=O`, the LD50 was 40 mg/kg.
Turning to `C[N+](C)(C)[O-]`, the LD50 was 8700 mg/kg.
Turning to `CCSP(SCC)SCC`, the LD50 is 355 mg/kg.
On to `CC(C)CS`, for which the LD50 was 7170 mg/kg.
`OCCOc1ccc(Cl)cc1Cl`: the LD50 was 1410 mg/kg.
For the molecule `CC(C(=O)OCCN1CCN(CCOC(=O)C(C)c2cccc3ccccc23)CC1)c1cccc2ccccc12` (stereo not given), the LD50 is 5550 mg/kg.
Turning to `NC(=S)Nc1ccccc1Cl`, the LD50 is 4.6 mg/kg.
On to `Clc1ccc(CCC(Cn2ccnc2)Sc2c(Cl)cccc2Cl)cc1` (stereo not given), for which the LD50 is 1720 mg/kg.
Turning to `C=CCNc1nc(NCC=C)nc(N(CCCCCCN(c2nc(NCC=C)nc(NCC=C)n2)C2CC(C)(C)NC(C)(C)C2)C2CC(C)(C)NC(C)(C)C2)n1`, the LD50 was 4010 mg/kg.
Turning to `CC1(COCCOCC2(C)CO2)CO1` (stereo not given), the 50% lethal dose (LD50) was 7460 mg/kg.
As to `COc1cc(S(C)=O)ccc1-c1nc2ncccc2[nH]1` (stereo not given), the LD50 was 315 mg/kg.
As for `CCC(=O)O[C@H]1[C@H](O[C@@H]2[C@@H](C)[C@H](O[C@H]3C[C@@](C)(OC)[C@@H](O)[C@H](C)O3)[C@@H](C)C(=O)O[C@H](CC)[C@@](C)(O)[C@H](O)[C@@H](C)C(=O)[C@H](C)C[C@@]2(C)O)O[C@H](C)C[C@@H]1N(C)C`, the LD50 is 1450 mg/kg.
For `CCCCC(CC)COC(CBr)c1ccccc1` (stereo not given), the LD50 is 250 mg/kg.
Take `Cc1ccnc(C)c1`: the LD50 is 200 mg/kg.
For the molecule `O=[N+]([O-])c1ccc(Sc2ccc([N+](=O)[O-])cc2)cc1`, the LD50 is 1490 mg/kg.
Turning to `O=C1C[C@@H]2OCC=C3CN4CC[C@]56c7ccccc7N1[C@H]5[C@H]2[C@H]3C[C@H]46`, the LD50 was 16.2 mg/kg.
For the molecule `Ic1nc(I)c(I)[nH]1`, the 50% lethal dose (LD50) was 278 mg/kg.
Consider `CN(C)C(=S)N/N=C/c1ccc([N+](=O)[O-])o1`, for which the LD50 was 750 mg/kg.
Turning to `COc1ccc([N+](=O)[O-])cc1`, the LD50 was 2300 mg/kg.
Regarding `O=C1C=CC(=NCl)C=C1`, the LD50 was 100 mg/kg.
For `S=C1NCNCN1`, the LD50 is 4.6 mg/kg.
Regarding `O=C1C=CC(=O)N1c1ccccc1Cl`, the LD50 is 520 mg/kg.
On to `C=C1C[C@@H]1C[C@H](N)C(=O)O`, for which the LD50 is 98 mg/kg.
`CN1CCN(CCCN2c3ccccc3Sc3ccc(C(F)(F)F)cc32)CC1`: the LD50 is 543 mg/kg.
As for `CCN(CC)CCCNc1c2ccccc2nc2cccc([N+](=O)[O-])c12`, the LD50 was 63.2 mg/kg.
As for `CN(C)Cc1ccccc1`, the LD50 is 265 mg/kg.
`CC(C)=CC1C(C(=O)OCc2cc3c(cc2Cl)OCO3)C1(C)C` (stereo not given): the LD50 was 15000 mg/kg.
Turning to `CN1CCC(N(Cc2ccccc2)c2ccccc2)CC1`, the LD50 was 460 mg/kg.
Turning to `COP(=S)(OC)Oc1ccc([N+](=O)[O-])c(Cl)c1`, the LD50 was 285 mg/kg.
Take `CCCCCCCCCc1ccc(OCCOS(=O)(=O)O)cc1`: the median lethal dose (LD50) is 10000 mg/kg.
For the molecule `CCOC(=S)C=Cc1ccc(OC)cc1`, the LD50 is 930 mg/kg.
`O=c1[nH]c2[nH]cnc(=O)c2[nH]1`: the LD50 is 1760 mg/kg.
Turning to `O=S(=O)(F)C(F)(F)C(F)(F)C(F)(F)C(F)(F)C(F)(F)C(F)(F)C(F)(F)C(F)(F)F`, the 50% lethal dose (LD50) was 154 mg/kg.
For `CNC(=O)Oc1cc(C)c(S(C)=O)c(C)c1` (stereo not given), the LD50 was 42 mg/kg.
`C=CCSC1=NCCS1`: the LD50 was 110 mg/kg.
Turning to `Nc1ccc2c(c1)C(=O)NC(CCCl)O2` (stereo not given), the LD50 was 1960 mg/kg.
Take `CC(C)=CCC1=C(O)C(C(=O)CC(C)C)=C(O)C(CC=C(C)C)(CC=C(C)C)C1=O`: the LD50 is 100 mg/kg.
On to `CCOC(=O)c1ccc([N+](=O)[O-])cc1`, for which the LD50 is 2660 mg/kg.
